Measured values reported in patent US12589099B2 (priority 2021, dated 2026).

Columns and labels:
[1] = tested on: DCX+ neuroblasts in the dentate gyrus of the hippocampus; experiment: Doublecortin (DCX) IHC, neuroblasts in the dentate gyrus 35 days post-TBI; type: in vivo, male Wistar rats; settings: 4.5 mg/kg IN twice daily; 35 days following TBI
Description: (§1) Young adult (2-3 months) male Wistar rats were subjected to a moderate traumatic brain injury (TBI) induced by controlled cortical impact (CCI). Animal models of TBI including the CCI model and functional tests have been described in detail in peer reviewed publications (Xiong et al., 2013, Nat Rev Neurosci.; Zhang et al., 2016, J Neurosurg.; Zhang et al., 2016, Neurochem Int.; Zhang et al., 2021, J Neurotrauma). Injury consisted of a single impact at 4.0 m/sec, 2.5 mm deformation to the left parietal cortex. In addition, a group of animals was left healthy/not injured to serve as a healthy control.
The substance used in this study was ALPHA-1062 at 4.5 mg/kg. As control treatment (vehicle) purified water was administered intranasally (IN). […]
(§2) Histological assessment was performed including quantitative image analysis protocols; followed by statistical analysis of the data. […]
For cell counting and quantitation NeuN+ cells were examined in the ipsilateral cortex, DG, CA1, and CA3 regions of the ipsilateral hippocampus. […] The number of BrdU+ cells (red-fluorophore) and NeuN (green-fluorophore)/BrdU-colabeled cells (yellow after merge) were counted. […] The immune-positive cells were determined and divided by the measured areas and presented as numbers per square mm. […]

[2] = tested on: NeuN and BrdU double positive granule neurons in the dentate gyrus; experiment: NeuN/BrdU double label, newborn neurons in the dentate gyrus 35 days post-TBI; type: in vivo, male Wistar rats; settings: 4.5 mg/kg IN twice daily, 35 days following TBI
Description: as §1
The substance used in this study was ALPHA-1062 at 4.5 mg/kg. As control treatment (vehicle) purified water was administered intranasally (IN). The ALPHA-1062 and the control treatment were initiated 2 hours after injury and continued twice daily (with a 6-hour interval) for 35 consecutive days. […]
as §2
For cell counting and quantitation NeuN+ cells were examined in the ipsilateral cortex, DG, CA1, and CA3 regions of the ipsilateral hippocampus. […] The number of BrdU+ cells (red-fluorophore) and NeuN (green-fluorophore)/BrdU-colabeled cells (yellow after merge) were counted. […]

## COc1ccc2c3c1O[C@H]1C[C@@H](OC(=O)c4ccccc4)C=C[C@@]31CCN(C)C2 [ALPHA-1062, (4aS,6R,8aS)-5,6,9,10,11,12-hexahydro-3-methoxy-11-methyl-4aH-[1]benzofuro[3a,3,2-ef][2]benzazepin-6-ol benzoate]
[1]
  DCX positive cells in dentate gyrus compared to sham surgery cohort: comparable numbers
  DCX positive cells in dentate gyrus compared to vehicle: higher number of DCX positive cells
[2]
  NeuN and BrdU double positive granule neurons compared to both vehicle-treated and sham surgery animals: significantly higher (p<0.05) numbers
